In ChEMBL document CHEMBL2417389, “Synthesis and optimization of novel (3S,5R)-5-(2,2-dimethyl-5-oxo-4-phenylpiperazin-1-yl)piperidine-3-carboxamides as orally active renin inhibitors” (Bioorg Med Chem, 2013):
Changes are numbered by the printed parent chain. Values belong to the compound of their own block, whether it stands above or below them. Calls of active or inactive are those of the source. No cut-off for these calls is given here.

How the values were obtained:
[1] = target: T1, Renin (Macaca fascicularis) (UniProt Q6DLS0); assay: Ratio of compound IC50 to Aliskiren hemifumarate IC50 for cynomolgus monkey plasma renin
T1 sequence (whole entry): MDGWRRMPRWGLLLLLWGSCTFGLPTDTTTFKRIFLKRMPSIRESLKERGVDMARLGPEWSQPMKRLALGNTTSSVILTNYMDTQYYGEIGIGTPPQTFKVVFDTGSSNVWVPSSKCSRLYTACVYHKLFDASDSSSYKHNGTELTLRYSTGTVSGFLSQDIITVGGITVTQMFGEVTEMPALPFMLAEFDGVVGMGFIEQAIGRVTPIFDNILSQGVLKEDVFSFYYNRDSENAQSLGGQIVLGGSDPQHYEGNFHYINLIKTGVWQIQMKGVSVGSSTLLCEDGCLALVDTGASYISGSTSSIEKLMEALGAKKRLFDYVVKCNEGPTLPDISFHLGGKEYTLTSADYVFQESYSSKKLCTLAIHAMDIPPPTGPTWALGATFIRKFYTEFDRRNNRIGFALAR

[2] = target: T2, Renin (Macaca fascicularis, UniProt Q6DLS0); assay: Inhibition of cynomolgus monkey plasma renin assessed as angiotensin 1 level after 60 mins by competitive radioimmunoassay
T2 sequence (Q6DLS0 whole entry): T1 sequence (whole entry)

[3] = target: T3, Renin (Homo sapiens, UniProt P00797); assay: Inhibition of trypsin-activated human recombinant renin using (Arg-Glu(EDANS)-Ile-His-Pro-Phe-His-Leu-Val-Ile-His-Thr-Lys(DABCYL)-Arg) as substrate incubated for 10 mins prior to substrate addition measured after 90 mins by fluorescence assay
T3 sequence (P00797 whole entry): T1 sequence (whole entry) with A68T, L214I, A235S

[4] = target: hERG (KCNH2) (Homo sapiens, UniProt Q12809); assay: Inhibition of human ERG channel at 30 uM by patch clamp technique
[5] = target: CYP2D6 (Homo sapiens, UniProt P10635); assay: Inhibition of CYP2D6 (unknown origin) at 10 uM; format: ADME
[6] = target: CYP3A4 (Homo sapiens, UniProt P08684); assay: Inhibition of CYP3A4 (unknown origin) at 10 uM; format: ADME
[7] = test system: Cynomolgus monkey; assay: Antihypertensive activity in cynomolgus monkey assessed as reduction in mean arterial pressure at 10 mg/kg, po measured for 24 hrs post dose; format: functional, organism-based; set-up: dose 10 mg/kg; details: Macaca fascicularis, Artery
[8] = test system: Rattus norvegicus; assay: Antihypertensive activity in double transgenic rat assessed as reduction in mean arterial pressure at 30 mg/kg, po measured for 48 hrs post dose; format: functional, organism-based; set-up: dose 30 mg/kg; details: Artery
[9] = AUC (0 to 24 hrs) in cynomolgus monkey at 10 mg/kg, po; format: ADME, organism-based, Macaca fascicularis; set-up: time < 24 hr, dose 10 mg/kg, route oral; details: plasma
[10] = AUC (0 to 24 hrs) in cynomolgus monkey at 3 mg/kg, po; format: ADME, organism-based, Macaca fascicularis; set-up: time < 24 hr, dose 3 mg/kg, route oral; details: plasma
[11] = test system: Cynomolgus monkey; assay: Antihypertensive activity in po dosed cynomolgus monkey assessed as reduction in mean arterial pressure administered 3 days post furosemide-challenge measured after 24 hrs; format: functional, organism-based; details: Macaca fascicularis; Artery
[12] = target: T4, Renin (Homo sapiens) (UniProt P00797); assay: Ratio of compound IC50 to Aliskiren hemifumarate IC50 for human plasma renin
T4 sequence (whole entry): T1 sequence (whole entry) with A68T, L214I, A235S

[13] = organism: Cavia porcellus; assay: Cardiotoxicity in guinea pig assessed as maximum dV/dt in right ventricular papillary muscle at 30 uM by glass microelectrode method relative to baseline; format: toxicity, Muscle tissue
[14] = organism: Cavia porcellus; assay: Cardiotoxicity in guinea pig assessed as action potential duration at 90% repolarization of right ventricular papillary muscle at 30 uM by glass microelectrode method relative to baseline; format: toxicity, Muscle tissue
[15] = test system: Rattus norvegicus; assay: Antihypertensive activity in double transgenic rat assessed as reduction in mean arterial pressure at 30 mg/kg, po after 24 hrs; format: functional, organism-based; set-up: dose 30 mg/kg; details: Artery
[16] = Half life in cynomolgus monkey at 10 mg/kg, po and 1 mg/kg, iv; format: ADME, organism-based, Macaca fascicularis; details: in vivo
[17] = Volume of distribution at steady state in cynomolgus monkey at 10 mg/kg, po and 1 mg/kg, iv; format: ADME, organism-based, Macaca fascicularis; details: in vivo, read-out: Vdss
[18] = Cmax in cynomolgus monkey at 10 mg/kg, po and 1 mg/kg, iv; format: ADME, organism-based, Macaca fascicularis; details: in vivo
[19] = Clearance in cynomolgus monkey at 10 mg/kg, and 1 mg/kg, iv; format: ADME, organism-based, Macaca fascicularis; details: in vivo
[20] = Oral bioavailability in cynomolgus monkey at 10 mg/kg; format: ADME, organism-based, Macaca fascicularis; details: in vivo
[21] = Half life in Sprague-Dawley rat at 30 mg/kg, po and 1 mg/kg, iv; format: ADME, organism-based; details: in vivo
[22] = Volume of distribution at steady state in Sprague-Dawley rat at 30 mg/kg, po and 1 mg/kg, iv; format: ADME, organism-based; details: in vivo, read-out: Vdss
[23] = Clearance in Sprague-Dawley rat at 30 mg/kg, po and 1 mg/kg, iv; format: ADME, organism-based; details: in vivo
[24] = AUC (0 to 24 hrs) in Sprague-Dawley rat at 30 mg/kg, po; format: ADME, organism-based; set-up: time < 24 hr, dose 30 mg/kg, route oral; details: plasma
[25] = Oral bioavailability in Sprague-Dawley rat at 30 mg/kg; format: ADME, organism-based; details: in vivo
[26] = Cmax in Sprague-Dawley rat at 30 mg/kg, po and 1 mg/kg, iv; format: ADME, organism-based; details: in vivo
[27] = test system: Salmonella typhimurium; assay: Genotoxicity in Salmonella typhimurium TA100 by Ames assay; format: toxicity, organism-based; details: salmonella enterica subsp. enterica serovar typhimurium
[28] = test system: Salmonella typhimurium; assay: Genotoxicity in Salmonella typhimurium TA98 by Ames assay; format: toxicity, organism-based; details: salmonella enterica subsp. enterica serovar typhimurium
[29] = Plasma protein binding in rat by ultracentrifugation method; format: ADME, cell-free; details: read-out: PPB (converted)
[30] = Plasma protein binding in monkey by ultracentrifugation method; format: ADME, cell-free, Macaca mulatta; details: rhesus monkey, read-out: PPB (converted)
[31] = Plasma protein binding in human by ultracentrifugation method; format: ADME, cell-free; details: read-out: PPB (converted)
[32] = Metabolic stability in rat liver microsomes assessed as compound remaining after 30 mins; format: ADME, Microsome; details: read-out: Stability
[33] = Metabolic stability in monkey liver microsomes assessed as compound remaining after 30 mins; format: ADME, Macaca mulatta, Microsome; details: rhesus monkey, read-out: Stability
[34] = Metabolic stability in human liver microsomes assessed as compound remaining after 30 mins; format: ADME, Microsome; details: read-out: Stability
[35] = Lipophilicity, log D of the compound at pH 7.4; format: physicochemical; details: buffer
[36] = target: T3, Renin; assay: Inhibition of human plasma renin by competitive radioimmunoassay
[37] = AUC (0 to 24 hrs) in Sprague-Dawley rat at 10 mg/kg, po; format: ADME, organism-based; set-up: time < 24 hr, dose 10 mg/kg, route oral; details: plasma

Sequence of CYP3A4 (P08684 whole entry): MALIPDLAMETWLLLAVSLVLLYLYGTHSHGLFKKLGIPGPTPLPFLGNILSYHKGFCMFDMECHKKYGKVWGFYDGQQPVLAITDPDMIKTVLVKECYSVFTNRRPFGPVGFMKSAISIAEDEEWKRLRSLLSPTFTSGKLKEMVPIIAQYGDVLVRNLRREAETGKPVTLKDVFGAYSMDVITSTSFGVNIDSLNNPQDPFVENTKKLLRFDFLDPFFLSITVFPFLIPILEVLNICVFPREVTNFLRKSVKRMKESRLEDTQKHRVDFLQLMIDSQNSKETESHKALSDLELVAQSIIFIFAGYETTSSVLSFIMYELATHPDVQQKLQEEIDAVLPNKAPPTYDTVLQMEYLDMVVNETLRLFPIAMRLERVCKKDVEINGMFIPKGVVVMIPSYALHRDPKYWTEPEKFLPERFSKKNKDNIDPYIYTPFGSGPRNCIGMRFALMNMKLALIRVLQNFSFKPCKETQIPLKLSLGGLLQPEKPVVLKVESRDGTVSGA
Sequence of CYP2D6 (P10635 whole entry): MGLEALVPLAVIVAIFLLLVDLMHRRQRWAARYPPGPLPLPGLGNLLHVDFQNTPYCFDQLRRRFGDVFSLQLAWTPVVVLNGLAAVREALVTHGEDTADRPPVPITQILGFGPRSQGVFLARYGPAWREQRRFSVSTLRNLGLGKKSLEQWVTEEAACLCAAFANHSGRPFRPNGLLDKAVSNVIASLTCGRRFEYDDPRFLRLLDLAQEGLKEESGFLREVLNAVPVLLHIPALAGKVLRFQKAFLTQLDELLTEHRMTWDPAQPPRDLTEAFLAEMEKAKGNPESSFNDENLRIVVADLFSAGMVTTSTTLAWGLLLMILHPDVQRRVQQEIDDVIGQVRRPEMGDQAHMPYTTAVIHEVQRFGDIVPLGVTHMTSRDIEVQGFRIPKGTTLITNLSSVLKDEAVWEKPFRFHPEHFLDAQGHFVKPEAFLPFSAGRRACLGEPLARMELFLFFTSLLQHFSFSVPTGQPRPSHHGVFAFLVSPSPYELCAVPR
Sequence of hERG (KCNH2) (Q12809 whole entry): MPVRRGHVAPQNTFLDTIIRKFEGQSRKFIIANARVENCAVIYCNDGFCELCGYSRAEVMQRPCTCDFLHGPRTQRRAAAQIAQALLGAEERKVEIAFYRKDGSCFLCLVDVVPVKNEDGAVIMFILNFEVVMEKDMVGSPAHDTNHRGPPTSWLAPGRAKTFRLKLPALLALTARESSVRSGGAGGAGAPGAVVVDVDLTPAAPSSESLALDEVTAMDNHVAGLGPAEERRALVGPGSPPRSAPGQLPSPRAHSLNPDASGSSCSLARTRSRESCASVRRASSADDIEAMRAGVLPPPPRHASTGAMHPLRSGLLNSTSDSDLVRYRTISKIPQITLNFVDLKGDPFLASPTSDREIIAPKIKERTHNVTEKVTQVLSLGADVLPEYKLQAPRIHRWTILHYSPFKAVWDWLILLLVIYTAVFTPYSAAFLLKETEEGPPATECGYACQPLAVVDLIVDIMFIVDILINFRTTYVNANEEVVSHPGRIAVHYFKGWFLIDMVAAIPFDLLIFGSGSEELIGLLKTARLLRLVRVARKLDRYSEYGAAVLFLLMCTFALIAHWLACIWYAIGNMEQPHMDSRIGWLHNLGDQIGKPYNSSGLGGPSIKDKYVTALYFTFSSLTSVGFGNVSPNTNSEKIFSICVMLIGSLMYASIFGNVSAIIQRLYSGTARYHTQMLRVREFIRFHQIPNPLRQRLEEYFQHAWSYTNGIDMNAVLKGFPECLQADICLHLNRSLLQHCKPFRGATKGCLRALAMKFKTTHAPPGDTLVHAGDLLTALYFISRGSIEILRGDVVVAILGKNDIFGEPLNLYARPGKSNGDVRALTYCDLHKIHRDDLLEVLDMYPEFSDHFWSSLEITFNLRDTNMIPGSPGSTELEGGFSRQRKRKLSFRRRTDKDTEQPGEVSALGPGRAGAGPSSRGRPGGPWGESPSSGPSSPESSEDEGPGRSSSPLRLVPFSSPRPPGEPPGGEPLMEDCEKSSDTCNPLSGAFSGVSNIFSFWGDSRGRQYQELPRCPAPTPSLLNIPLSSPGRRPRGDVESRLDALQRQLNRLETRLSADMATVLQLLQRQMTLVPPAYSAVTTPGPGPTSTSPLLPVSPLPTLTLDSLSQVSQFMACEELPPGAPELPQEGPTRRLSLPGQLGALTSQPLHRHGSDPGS

SMILES: CC(C)CC(CC(C)C)NC(=O)[C@@H]1CNC[C@H](N2CC(=O)N(c3ccccc3Cl)CC2(C)C)C1
- Ratio IC50 [1]: 2.8

SMILES: CC(C)C[C@@H](NC(=O)[C@@H]1CNC[C@H](N2CC(=O)N(c3ccccc3Cl)CC2(C)C)C1)c1ccc(F)cn1.O=C(O)/C=C/C(=O)O
- IC50 [2]: 9.7 nM
- IC50 [3]: 1 nM
- Ratio IC50 [1]: 2.1
- inhibition at 30 µM [4]: 27%
- inhibition at 10 µM [5]: 8.3%
- inhibition at 10 µM [6]: 22%
- AUC [7]: -194 mmHg.hr
- AUC [8]: -535 mmHg.hr
- AUC(0-t) at 24 h [9]: 2580 ng·h/mL

SMILES: CC(C)C[C@@H](NC(=O)[C@@H]1CNC[C@H](N2CC(=O)N(c3ccccc3Cl)CC2(C)C)C1)c1cccnc1
- Ratio IC50 [1]: 0.9

SMILES: CCOC[C@@H](CC(C)C)NC(=O)[C@@H]1CNC[C@H](N2CC(=O)N(c3ccccc3Cl)CC2(C)C)C1.O=C(O)/C=C/C(=O)O
- Ratio IC50 [1]: 0.5
- AUC(0-t) at 24 h [10]: 60 ng·h/mL

SMILES: Cc1ccc(F)cc1N1CC(C)(C)N([C@H]2CNC[C@@H](C(=O)N[C@H](CC(C)C)c3ccc(F)cn3)C2)CC1=O
- IC50 [2]: 16 nM
- IC50 [3]: 1.3 nM
- Ratio IC50 [1]: 2.1
- inhibition at 30 µM [4]: 40%
- inhibition at 10 µM [5]: 11%
- inhibition at 10 µM [6]: 44%
- AUC [8]: -606 mmHg.hr

SMILES: CC(C)C[C@@H](NC(=O)[C@@H]1CNC[C@H](N2CC(=O)N(c3ccccc3Cl)CC2(C)C)C1)c1ncco1
- IC50 [2]: 8.3 nM
- IC50 [3]: 1.9 nM
- Ratio IC50 [1]: 1.4

SMILES: CC(C)C[C@@H](NC(=O)[C@@H]1CNC[C@H](N2CC(=O)N(c3ccccc3Cl)CC2(C)C)C1)c1cncc(F)c1
- IC50 [2]: 6.9 nM
- IC50 [3]: 1.7 nM
- Ratio IC50 [1]: 0.8

SMILES: Cc1ccccc1N1CC(C)(C)N([C@H]2CNC[C@@H](C(=O)N[C@H](CC(C)C)c3ccc(F)cn3)C2)CC1=O.O=C(O)/C=C/C(=O)O
- IC50 [2]: 7 nM
- IC50 [3]: 1.6 nM
- Activity [11]: Dose-dependent effect
- Ratio IC50 [12]: 1.2
- Ratio IC50 [1]: 0.9
- Activity [13]: -11.6%
- Activity [14]: -1%
- Activity [15]: Active
- half-life [16]: 7.9 h
- Vd [17]: 5.4 L/kg
- Cmax [18]: 604 ng/mL
- clearance [19]: 9.5 mL/min/kg
- bioavailability [20]: 25%
- half-life [21]: 5.4 h
- Vd [22]: 11 L/kg
- clearance [23]: 80 mL/min/kg
- AUC(0-t) at 24 h [24]: 1100 ng·h/mL
- bioavailability [25]: 20%
- Cmax [26]: 204 ng/mL
- Activity [27]: Non-toxic
- Activity [28]: Non-toxic
- fraction unbound [29]: 0.37
- fraction unbound [30]: 0.45
- fraction unbound [31]: 0.62
- remaining at 0.5 h [32]: 89%
- remaining at 0.5 h [33]: 84%
- remaining at 0.5 h [34]: 100%
- logD [35]: 2
- IC50 [36]: 3.6 nM
- inhibition at 30 µM [4]: 5.2%
- inhibition at 10 µM [5]: 1%
- inhibition at 10 µM [6]: 30%
- AUC [7]: -267 mmHg.hr
- AUC [8]: -581 mmHg.hr
- AUC(0-t) at 24 h [9]: 3190 ng·h/mL

SMILES: CC(C)C[C@@H](NC(=O)[C@@H]1CNC[C@H](N2CC(=O)N(c3ccccc3Cl)CC2(C)C)C1)C(O)C(C)C (stereo partly drawn)
- Ratio IC50 [1]: 0.8

SMILES: CC[C@@H](NC(=O)[C@@H]1CNC[C@H](N2CC(=O)N(c3ccccc3Cl)CC2(C)C)C1)c1ccccc1.O=C(O)/C=C/C(=O)O
- Ratio IC50 [1]: 1.8
- AUC(0-t) at 24 h [10]: 730 ng·h/mL
- AUC(0-t) at 24 h [37]: 1500 ng·h/mL

SMILES: CC(C)C[C@@H](NC(=O)[C@@H]1CNC[C@H](N2CC(=O)N(c3ccccc3Cl)CC2(C)C)C1)c1ccno1
- IC50 [2]: 3.3 nM
- IC50 [3]: 1.1 nM
- Ratio IC50 [1]: 0.6

SMILES: CC(C)C[C@@H](NC(=O)[C@@H]1CNC[C@H](N2CC(=O)N(c3ccccc3Cl)CC2(C)C)C1)c1ccccn1
- IC50 [2]: 17 nM
- IC50 [3]: 1.4 nM
- Ratio IC50 [1]: 3.6

SMILES: CC(C)C[C@@H](NC(=O)[C@@H]1CNC[C@H](N2CC(=O)N(c3ccccc3Cl)CC2(C)C)C1)c1ccccc1
- Ratio IC50 [1]: 1

Results, then the compound that gave them:

- IC50 [2]: 55 nM
- IC50 [3]: 5.2 nM
- Ratio IC50 [1]: 11
SMILES: CC[C@@H](NC(=O)[C@@H]1CNC[C@H](N2CC(=O)N(c3ccccc3Cl)CC2(C)C)C1)c1ccc(Cl)cc1

- IC50 [2]: 25 nM
- IC50 [3]: 2.3 nM
- Ratio IC50 [1]: 5
SMILES: CC[C@@H](NC(=O)[C@@H]1CNC[C@H](N2CC(=O)N(c3ccccc3Cl)CC2(C)C)C1)c1cccc(Cl)c1

- IC50 [2]: 19 nM
- IC50 [3]: 2.4 nM
- Ratio IC50 [1]: 3.7
SMILES: CC[C@@H](NC(=O)[C@@H]1CNC[C@H](N2CC(=O)N(c3ccccc3Cl)CC2(C)C)C1)c1ccc(F)cc1

- IC50 [2]: 14 nM
- IC50 [3]: 1.8 nM
- Ratio IC50 [1]: 2.8
SMILES: CC[C@@H](NC(=O)[C@@H]1CNC[C@H](N2CC(=O)N(c3ccccc3Cl)CC2(C)C)C1)c1cccc(F)c1

- Ratio IC50 [1]: 2
SMILES: CCC[C@@H](NC(=O)[C@@H]1CNC[C@H](N2CC(=O)N(c3ccccc3Cl)CC2(C)C)C1)c1ccccc1

- IC50 [2]: 11 nM
- IC50 [3]: 3.3 nM
- Ratio IC50 [1]: 2.3
SMILES: CC[C@@H](NC(=O)[C@@H]1CNC[C@H](N2CC(=O)N(c3ccccc3Cl)CC2(C)C)C1)c1ccccc1F
